Measured values as given in PMC7069976, “Improved secretion of glycoproteins using an N-glycan-restricted passport sequence tag recognized by cargo receptor” (Nature Communications, 2020).
Values belong to the substance of their own block, whether it stands above or below them.

Assays:
[1] = target: T1, MCFD2 (Homo sapiens, UniProt Q8NI22); test: NMR chemical shift perturbation of [15N]MCFD2 upon peptide addition; format: binding
T1 construct: The preparation of ERGIC-53^CRD, MCFD2, and their complexes was performed as previously described; made in house
T1 sequence (Q8NI22 27-146): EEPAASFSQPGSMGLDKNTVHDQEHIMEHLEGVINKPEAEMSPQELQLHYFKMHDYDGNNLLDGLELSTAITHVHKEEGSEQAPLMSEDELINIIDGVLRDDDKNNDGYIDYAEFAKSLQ

[2] = target: T2, MCFD2/ERGIC-53^CRD complex (Homo sapiens, UniProt P49257+Q8NI22); test: NMR titration (peak attenuation) of [15N]FVIII-derived peptide with MCFD2/ERGIC-53CRD; format: binding
T2 construct: made in house
T2 sequence (Q8NI22 27-146): T1 sequence (Q8NI22 27-146)
T2 sequence (P49257 44-267 partner limits assumed): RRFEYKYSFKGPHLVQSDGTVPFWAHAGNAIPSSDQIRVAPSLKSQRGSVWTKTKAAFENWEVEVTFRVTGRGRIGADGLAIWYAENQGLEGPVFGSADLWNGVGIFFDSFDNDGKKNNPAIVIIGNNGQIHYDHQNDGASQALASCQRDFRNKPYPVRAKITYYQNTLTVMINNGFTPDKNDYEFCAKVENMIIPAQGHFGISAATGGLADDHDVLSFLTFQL
Method: (§1) The preparation of ERGIC-53^CRD, MCFD2, and their complexes was performed as previously described[16],[18]. FVIII fragment (Asn776–Asp838) was prepared using the protocol described previously. The DNA fragment encoding residues Asn776–Asp838 of FVIII was cloned into the ubiquitin (Ub)-fused pET28a plasmid. The peptide fragment was expressed as a Ub-fused protein in Luria–Bertani broth or M9 minimal medium supplemented with [^15N]NH4Cl and/or [^13C]glucose for NMR experiments. The Ub-fused FVIII peptide was purified with immobilized Ni^2+-affinity chromatography and then digested with Ub carboxyl-terminal hydrolase (YUH1). The resultant peptide was purified by reversed-phase chromatography.
(§2) NMR measurements were performed using AVANCE 800 and AVANCE 500 spectrometers each equipped with a 5-mm triple-resonance cryogenic probe (Bruker BioSpin, Fallanden, Switzerland). The NMR data were processed and analyzed using TopSpin (Bruker BioSpin) and SPARKY software.
(§3) The chemical shifts of the FVIII fragment (Asn776–Asp838) were assigned by a standard protocol[18],[25]. To obtain the dissociation constant based on NMR peak attenuation, 0.1 mM [^15N]FVIII fragment was titrated with 0.02–0.3 mM of MCFD2/ERGIC-53^CRD or MCFD2 only in 20 mM 2-(N-morpholino) ethanesulfonic acid (MES; pH 6.0) containing 10 mM CaCl2, 150 mM NaCl, and 10% (v/v) D2O. […]

[3] = target: T1, MCFD2; test: NMR titration (peak attenuation) of [15N]FVIII-derived peptide with MCFD2 only; format: binding; conditions: absence of ERGIC-53CRD, 0.1 mM [15N]FVIII fragment, 0.02–0.3 mM MCFD2, 20 mM MES pH 6.0, 10 mM CaCl2, 150 mM NaCl, 10% D2O, read-out: dissociation constant
Method: as §1, §2, §3

[4] = system: HCT116 cells; test: α1-antitrypsin (AAT) secretion level (ELISA) from HCT116 cells; format: cell-based
Source text: (§4) For expression of the FVIII and FV full-length and deletion mutant proteins in mammalian cells, the codon-optimized FVIII and FV genes were inserted into the p3XFLAG-CMV-14 Expression Vector and p3XFLAG-CMV-9 Expression Vector, respectively (Sigma-Aldrich, St. Louis, MO). For the expression of the wild-type and mutated AAT, EPO, and sFγRIIIa in mammalian cells, the corresponding genes (purchased from FASMAC Co., Ltd., Atsuki, Japan) were inserted into the p3XFLAG-CMV-9 Expression Vector (Sigma-Aldrich).
HCT116 and its mutated cells as well as HEK293T were maintained in Dulbecco’s modified Eagle’s medium (DMEM) supplemented with 10% fetal bovine serum in 5% CO2 at 37 °C. For complementary DNA (cDNA) transfection, cells were grown overnight and transfected using Polyethylenimine “Max” (Polysciences Inc.) as described previously. Expi293F cells (Thermo Fisher Scientific, Waltham, MA) were maintained in Expi293 Expression Medium (Thermo Fisher Scientific) in 5% CO2 at 37 °C on an orbital shaker platform rotating at 125 r.p.m. For cDNA transfection, cells were transfected with the ExpiFectamine 293 Transfection Kit (Thermo Fisher Scientific Inc.). Protein expression was performed in serum-free medium.
(§5) The secreted levels of FVIII and FV antigens in the culture medium were determined with an sandwich enzyme-linked immunosorbent assay (ELISA) method using the VisuLize FVIII Antigen Kit (Affinity Biologicals Inc., Ancaster, ON) and the Asssay Max™ Human Factor V ELISA Kit (ASSAYPRO, MO), respectively. The secreted levels of AAT and EPO antigens in the culture medium were determined with an ELASA method using the anti-AAT antibody (Agilent, Santa Clara, CA) and anti-Flag M2 antibody (Sigma-Aldrich), respectively.

[5] = system: COS-7 cells; test: FV secretion level (ELISA) from COS-7 cells; format: cell-based
Source text: as §4, §5

[6] = target: T1, MCFD2; conditions: Arg44–His56; cited from earlier work

Kd ([2]; NMR peak attenuation, 0.1 mM [15N]FVIII fragment titrated with 0.02–0.3 mM MCFD2/ERGIC-53CRD, 20 mM MES pH 6.0, 10 mM CaCl2, 150 mM NaCl, 10% D2O, read-out: dissociation constant): 11 µM
Kd [3]: 120 µM
Substance: DPPSDLLLLKQSNSSKILVGRWHLASEK [FVIII-derived peptide, FVIII fragment residues Asn776–Asp838, expressed as Ub-fused protein and cleaved with YUH1]
chemical shift changes of MCFD2 induced by FVIII-derived peptide ([1]; two molar equivalents of peptide, with vs without five equivalents ERGIC-53CRD-derived tridecapeptide, pH 6.0, 303 K): markedly enhanced spectral changes in the presence of the ERGIC-53-derived tridecapeptide
attenuation of NMR peak intensities upon addition of MCFD2/ERGIC-53CRD ([2]; 15N-labeled peptide 0.1 mM, one molar equivalent, pH 6.0, 283 K): significant attenuation in peak intensities for the region spanning residues 806–819

Substance: DPPSDLLLLKQSNSSKILVGRWHLASEK
interaction of FV-derived peptide with MCFD2 ([1]; two molar equivalents, with vs without ERGIC-53CRD-derived peptide, pH 6.0, 2% DMSO-d6, 303 K): interacts with the EF-hand helices of MCFD2 in an ERGIC-53^CRD-dependent manner

Substance: ATZ-mutant: ATZ-mutant of alpha 1-antitrypsin, with or without C-terminal SDLLMLLRQS motif
ATZ-mutant secretion with vs without C-terminal motif ([4]; ATZ-mutant of alpha1-antitrypsin, HCT116, ELISA, n = 3): did not observe significant difference

Substance: AAT: human α1-antitrypsin, three N-glycosylation sites
AAT secretion level, average ([4]; HCT116, Average, n = 3 independent transfections, AAT = 1): 1
AAT secretion level ([4]; HCT116, replicate 1): 1.145
AAT secretion level ([4]; HCT116, replicate 2): 1.033
AAT secretion level ([4]; HCT116, replicate 3): 0.8224

Substance: FV: recombinant wild-type factor V
FV secretion level (Supplementary Fig. 7B), average ([5]; Average, n = 3, FV = 1): 1
FV secretion level (Supplementary Fig. 7B) ([5]; replicate 1): 1.05
FV secretion level (Supplementary Fig. 7B) ([5]; replicate 2): 0.9799
FV secretion level (Supplementary Fig. 7B) ([5]; replicate 3): 0.9702

Substance: RRFEYKYSFKGPH
chemical shift changes of MCFD2 induced by ERGIC-53CRD-derived tridecapeptide [6]: induces widespread chemical shift changes of MCFD2
